How the values were obtained:
Assay type in all cases: cell-based
AGS cell strain [1] = test: Effect on cell cycle (propidium iodide staining, FACS, sub G1); conditions: mimic 10 nM, 10 uM 5-FU 24 h after transfection, then 48 hours, relative to scrambled control (=1)
Procedure: The AGS cells were divided into a 96-well plate such that 2×10^5 AGS cells were allocated to each well, and synthesized miRNAs (10 nM) were transfected and cultured at 37° C. in an incubator. Twenty four hours after the transfection, 10 uM of 5-FU, which is an anti-cancer agent, was treated in one case or not treated in another case, and then the resulting mixture was cultured in an incubator at 37° C. for 48 hours. The cells were detached by using Trypsin-EDTA and washed with PBS two times.
Immediately after the AGS cell strains, which are EBV-negative cell strains, were divided into a 6-well plate such that 2×10^5 AGS cells were allocated to each well, a synthesized miRNA (10 nM) was transfected by using G-fectin and cultured at 37° C. in an incubator. Twenty four hours after the transfection, 10 uM of 5-FU was treated and the resulting mixture was cultured at 37° C. in an incubator for 48 hours. The cells were detached by using Trypsin-EDTA and washed with PBS two times. Afterwards, DNA was stained by propidium iodide staining and the ratio of cells where cell cycle was changed was investigated by FACS.

AGS cell strain [2] = test: Measurement of apoptosis (Annexin V staining, FACS); conditions: for Relative Apoptotic cell: AGS, mimic 10 nM, 10 uM 5-FU 24 h after transfection, then 48 hours, Annexin V, relative to scrambled control (=1), n=9; for effect on cell growth and apoptosis (summary statement): mimics transfected to AGS, tumor cell strain not infected with EBV
Procedure: Immediately after the AGS cell strain, which is an EBV-negative cell strain, was divided was divided into a 6-well plate such that 2×10^5 AGS cells were allocated to each well, a synthesized miRNA (10 nM) was transfected by using G-fectin and the resulting mixture was cultured at 37 t in an incubatorTwenty four hours after the transfection, 10 uM of 5-FU was treated and the resulting mixture was cultured in an incubator at 37° C. for 48 hours. The cells were detached by using Trypsin-EDTA and washed with PBS two times. Afterwards, the cells were treated with a PE Annexin V Apoptosis Detection Kit and the changed ratio of apoptotic cell was investigated by FACS (FIG. 7).
Immediately after the AGS cell strain, which is an EBV-negative cell strain, is divided into a 6-well plate such that 2×10^5 AGS cells were allocated to each well, a synthesized miRNA (10 nM) was transfected by using G-fectin and the resulting mixture was cultured at 37° C. Twenty four hours after the transfection, 10 uM of 5-FU, which is an anti-cancer agent, was treated and the resulting mixture was cultured in an incubator at 37° C. for 48 hours. The cells were detached by using Trypsin-EDTA and washed with PBS two times. Afterwards, the cells were treated with a PE Annexin V Apoptosis Detection Kit and the ratio of cells where apoptosis took place was measured by FACS.

AGS cell strain [3] = test: Cell growth test (CCK-8 assay) after transfection of BART miRNA mimics; conditions: 72 hours after transfection; for Relative Cell Growth: mimic 10 nM, relative to scrambled control (=1)
Procedure: An AGS cell strain (Korean Cell Line Bank), which is a stomach cancer cell strain, was cultured in an RPMI1640 (Gibco) culture medium including 10% fetal bovine serum. Mature type synthesized BART miRNAs were transfected to the AGS cell strain by using G-fectin (Genolution) according to a protocol of the manufacture.
To investigate the effect of individual EBV BART miRNAs on the AGS cell strain, the synthesized miRNAs were transfected to the AGS cell strain and, after 72 hours, cells were counted by CCK-8 assay.
Immediately after the AGS cell strain, which is an EBV-negative cell strain, was divided into 96-well plate having 1×10^3 cells/well, a synthesized miRNA (10 nM) was transfected by using G-fectin. After the transfection, according to the experimental objective, the cells were cultured at 37° C. in an incubator, and then CCK-8 was divided among the wells by allocating 10 μl of CCK-8 to each well and the resulting mixture was cultured in an incubator at 37° C. for two hours. Then, the light absorbance was measured with an ELISA measuring instrument.
By the method described in Example 3, miR-BART5-5p mimic or miR-BART15-3p mimic (10 nM) were transfected to the AGS cell strain, and the effect thereof on cell growth was investigated over time.
miR-BART5-5p, miR-BART15-3p, and miR-BART20-3p were transfected to the AGS cell strain (1×10^3 cells/well) in a concentration of 1, 3, 10, and 30 nM, and the effect on cell growth was investigated. Immediately after the AGS cell strain was divided into a 96-well plate such that 1×10^3 AGS cells were allocated to each well, a synthesized miRNA was transfected by using G-fectin. Seventy two hours after the transfection, CCK-8 was divided among the wells by allocating 10 μl of CCK-8 to each well, and the resulting mixture was cultured at 37° C. in an incubator for two hours.

Substance	Relative Sub G1 (AGS cell strain [1])	Relative Apoptotic cell (AGS cell strain [2])	Relative Cell Growth (AGS cell strain [3]; n=9)	effect on cell growth and apoptosis (summary statement) (AGS cell strain [2])	further results
BART14-3p: EBV BART miRNA mimic, double stranded RNA; sense SEQ NO: 83, antisense SEQ NO: 84 (sense UAAAUGCUGCAGUAGUAGGGAU; antisense AUCCCUACUACUGCAGCAUUUA; chemistry not given here)	0.8757	0.9426	1.447	–	–
BART14-5p: EBV BART miRNA mimic, double stranded RNA; sense SEQ NO: 81, antisense SEQ NO: 82 (sense UACCCUACGCUGCCGAUUUACA; antisense UGUAAAUCGGCAGCGUAGGGUA; chemistry not given here)	0.9076	1.054	1.408	–	–
BART15-5p: EBV BART miRNA mimic, double stranded RNA; sense SEQ NO: 13, antisense SEQ NO: 14 (sense AGGGAAACAUGACCACCUGAAGUC; antisense GACUUCAGGUGGUCAUGUUUCCCU; chemistry not given here)	0.8195	1.022	0.9545	–	–
BART16-3p: EBV BART miRNA mimic, double stranded RNA; sense SEQ NO: 23, antisense SEQ NO: 24 (sense AUCACCACCCUCUAUCCAUAU; antisense AUAUGGAUAGAGGGUGGUGAU; chemistry not given here)	0.9852	1.37	1.159	inhibit cell growth and promote apoptosis	Relative Apoptotic cell (AGS cell strain [2]; listed as 16-3p): significantly higher
BART16-5p: EBV BART miRNA mimic, double stranded RNA; sense SEQ NO: 21, antisense SEQ NO: 22 (sense UUAGAUAGAGUGGGUGUGUGCUCU; antisense AGAGCACACACCCACUCUAUCUAA; chemistry not given here)	1.182	1.312	0.705	inhibit cell growth and promote apoptosis	Relative Sub G1 (AGS cell strain [1]; listed as 16-5p): increased; Relative Apoptotic cell (AGS cell strain [2]; listed as 16-5p): significantly higher; Relative Cell Growth (AGS cell strain [3]; n=9, listed as miR-BART16-5p): inhibited cell growth
BART17-3p: EBV BART miRNA mimic, double stranded RNA; sense SEQ NO: 27, antisense SEQ NO: 28 (sense UGUAUGCCUGGUGUCCCCUUAGU; antisense ACUAAGGGGACACCAGGCAUACA; chemistry not given here)	1.067	1.088	0.7865	inhibit cell growth and promote apoptosis	Relative Sub G1 (AGS cell strain [1]; listed as 17-3p): increased; Relative Apoptotic cell (AGS cell strain [2]; listed as 17-3p): significantly higher; Relative Cell Growth (AGS cell strain [3]; n=9, listed as miR-BART17-3p): inhibited cell growth
BART17-5p: EBV BART miRNA mimic, double stranded RNA; sense SEQ NO: 25, antisense SEQ NO: 26 (sense UAAGAGGACGCAGGCAUACAAG; antisense CUUGUAUGCCUGCGUCCUCUUA; chemistry not given here)	1.099	1.004	0.9551	–	–
BART18-3p: EBV BART miRNA mimic, double stranded RNA; sense SEQ NO: 39, antisense SEQ NO: 40 (sense UAUCGGAAGUUUGGGCUUCGUC; antisense GACGAAGCCCAAACUUCCGAUA; chemistry not given here)	0.9963	0.8705	1.393	–	–
BART18-5p: EBV BART miRNA mimic, double stranded RNA; sense SEQ NO: 37, antisense SEQ NO: 38 (sense UCAAGUUCGCACUUCCUAUACA; antisense UGUAUAGGAAGUGCGAACUUGA; chemistry not given here)	0.9828	1.202	1.395	inhibit cell growth and promote apoptosis	Relative Apoptotic cell (AGS cell strain [2]; listed as 18-5p): significantly higher
BART19-3p: EBV BART miRNA mimic, double stranded RNA; sense SEQ NO: 71, antisense SEQ NO: 72 (sense UUUUGUUUGCUUGGGAAUGCU; antisense AGCAUUCCCAAGCAAACAAAA; chemistry not given here)	1.244	0.9742	1.237	–	Relative Sub G1 (AGS cell strain [1]; listed as 19-3p): increased
BART19-5p: EBV BART miRNA mimic, double stranded RNA; sense SEQ NO: 69, antisense SEQ NO: 70 (sense ACAUUCCCCGCAAACAUGACAUG; antisense CAUGUCAUGUUUGCGGGGAAUGU; chemistry not given here)	1.349	1.071	1.151	–	Relative Sub G1 (AGS cell strain [1]; listed as 19-5p): increased
BART20-3p: EBV BART miRNA mimic, double stranded RNA; sense SEQ NO: 75, antisense SEQ NO: 76 (sense CAUGAAGGCACAGCCUGUUACC; antisense GGUAACAGGCUGUGCCUUCAUG; chemistry not given here)	1.618	1.416	0.8577	inhibit cell growth and promote apoptosis	Relative Sub G1 (AGS cell strain [1]; listed as 20-3p): increased; Relative Apoptotic cell (AGS cell strain [2]; listed as 20-3p): significantly higher; cell growth (AGS cell strain [3]; 30 nM): almost no cell growth; cell growth depending on mimic concentration (onset of inhibition) (AGS cell strain [3]; 1, 3, 10 and 30 nM): decreased cell growth, beginning at 10 nm; Relative Cell Growth (AGS cell strain [3]; n=9, listed as miR-BART20-3p): inhibited cell growth

— patent US9243247B2, “Composition for promoting apoptosis or inhibiting cell growth, comprising epstein-barr virus microrna” (Catholic University Industry Academic Cooperation Foundation, priority 2011, dated 2016)
